ChEMBL document CHEMBL1137114, “Antituberculous activity of some aryl semicarbazone derivatives” (2004)

Experiments:
[1] = system: Mycobacterium tuberculosis; test: Antimycobacterial activity of compound against Mycobacterium tuberculosis H37Rv at 6.25 ug/mL; assay type: functional
[2] = system: Mycobacterium tuberculosis; test: Antimycobacterial activity of compound against Mycobacterium tuberculosis H37Rv at 1.56 ug/mL; assay type: functional
[3] = system: Mycobacterium tuberculosis; test: Antimycobacterial activity of compound against Mycobacterium tuberculosis H37Rv at 5 ug/mL; assay type: functional
[4] = system: Mycobacterium tuberculosis; test: Antimycobacterial activity of compound against Mycobacterium tuberculosis H37Rv at 8 ug/mL; assay type: functional
[5] = system: Mycobacterium tuberculosis; test: Antimycobacterial activity of compound against Mycobacterium tuberculosis H37Rv at 2 ug/mL; assay type: functional
[6] = system: Mycobacterium tuberculosis; test: Antimycobacterial activity of compound against Mycobacterium tuberculosis H37Rv at 1.88 ug/mL; assay type: functional
[7] = system: Mycobacterium tuberculosis; test: Antimycobacterial activity of compound against Mycobacterium tuberculosis H37Rv at 2.50 ug/mL
[8] = system: Mycobacterium tuberculosis; test: Antimycobacterial activity of compound against Mycobacterium tuberculosis H37Rv at 0.05 ug/mL; assay type: functional
[9] = system: Mycobacterium tuberculosis; test: Antimycobacterial activity of compound against Mycobacterium tuberculosis H37Rv at 0.125 ug/mL; assay type: functional

For `CC(=O)Nc1ccc(NC(=O)N/N=C/c2ccccc2[N+](=O)[O-])cc1`, the inhibition at 6.25 µg/mL [1] was 90%.
`Cc1c(Cl)cccc1NC(=O)N/N=C/c1ccccc1O` showed an inhibition at 6.25 µg/mL [1] of 0%.
In the case of `CC(=O)Nc1ccc(NC(=O)N/N=C/c2ccc([N+](=O)[O-])cc2)cc1`, the inhibition at 6.25 µg/mL [1] is reported as 95%.
In the case of `Cc1c(Cl)cccc1NC(=O)N/N=C/c1ccccc1[N+](=O)[O-]`, the inhibition at 6.25 µg/mL [1] is reported as 10%.
With `CC(=O)Nc1ccc(NC(=O)N/N=C/c2ccccc2O)cc1` the inhibition at 6.25 µg/mL [1] was 5%.
`CC(=O)Nc1ccc(NC(=O)N/N=C/c2ccc(N(C)C)cc2)cc1` showed an inhibition at 6.25 µg/mL [1] of 2%.
In the case of `Cc1c(Cl)cccc1NC(=O)N/N=C/c1ccc(N(C)C)cc1`, the inhibition at 6.25 µg/mL [1] is reported as 0%.
Work on `Cc1c(Cl)cccc1NC(=O)N/N=C/c1cccc([N+](=O)[O-])c1` yielded an inhibition at 6.25 µg/mL [1] of 58%.
With `CC(=O)Nc1ccc(NC(=O)N/N=C/c2cccc([N+](=O)[O-])c2)cc1` the inhibition at 1.56 µg/mL [2] was 100%.
`Cc1c(Cl)cccc1NC(=O)N/N=C/c1ccc([N+](=O)[O-])cc1` gave an inhibition at 6.25 µg/mL [1] of 24%.
In the case of `NC[C@H]1O[C@H](O[C@H]2[C@H](O)[C@@H](O[C@H]3O[C@H](CO)[C@@H](O)[C@H](N)C3O)[C@H](N)C[C@@H]2N)[C@H](O)[C@@H](O)[C@@H]1O` (single isomer, unassigned) [KANAMYCIN], the inhibition at 5 µg/mL [3] is reported as 90%.
`Nc1ccc(C(=O)O)c(O)c1` [AMINOSALICYLIC ACID] showed an inhibition at 8 µg/mL [4] of 92%.
For `O=C(O)c1cn(C2CC2)c2cc(N3CCNCC3)c(F)cc2c1=O` [CIPROFLOXACIN], the inhibition at 2 µg/mL [5] was 95%.
`CC[C@@H](CO)NCCN[C@@H](CC)CO` [ETHAMBUTOL] gave an inhibition at 1.88 µg/mL [6] of 90%.
`CCc1cc(C(N)=S)ccn1` [ETHIONAMIDE] showed an inhibition at 2.5 µg/mL [7] of 90%.
`NNC(=O)c1ccncc1` [ISONIAZID] gave an inhibition at 0.05 µg/mL [8] of 95%.
`CO[C@H]1/C=C/O[C@@]2(C)Oc3c(C)c(O)c4c(O)c(c(/C=N/N5CCN(C)CC5)c(O)c4c3C2=O)NC(=O)/C(C)=C\C=C\[C@H](C)[C@H](O)[C@@H](C)[C@@H](O)[C@@H](C)[C@H](OC(C)=O)[C@@H]1C` [RIFAMPIN] showed an inhibition at 0.125 µg/mL [9] of 95%.
